IC50 data for 41 molecules are collected here from patent publication US8802720B2, “Acylamino-substituted fused cyclopentanecarboxylic acid derivatives and their use as pharmaceuticals” (SANOFI, priority 2008, dated 2014).

For the test, the target named is human Edg-2 receptor (LPA1 receptor) (Homo sapiens, UniProt Q92633). As to the kind of experiment: Edg-2 receptor inhibition by FLIPR calcium fluorescence measurement (LPA-mediated calcium liberation). It counts as cell-based. Conditions: CHO cells stably overexpressing human Edg-2 receptor; LPA 18:1 100 nM; fluo-4 fluorescence; triplicate; read-out: Inhibitory concentrations IC50 for inhibition of the Edg-2 receptor. As to the method:
A) Determination of Edg-2 Receptor Inhibition by Fluorescence Imaging Plate Reader (FLIPR) Measurements
The inhibition of the Edg-2 receptor (LPA1 receptor) by the compounds of the invention was quantified by the inhibitory effect on the LPA-mediated calcium liberation in a cell-based calcium fluorescence assay by use of Chinese hamster ovarian (CHO) cells in which the human Edg-2 receptor was stably overexpressed (FIp-In system, Invitrogen). […] Changes in intracellular calcium were determined by fluorescence measurement with the calcium-sensitive dye fluo-4 (Invitrogen) in a fluorescence imaging plate reader (FLIPR, […]).
CHO cells stably overexpressing the human Edg-2 receptor were seeded (40.000 per well) in black clear-bottomed poly-D-lysine-coated 96 well plates (Becton Dickinson, Biocoat cellware) approximately 18-24 h prior to the experiments. Cells were grown in an incubator at 37° C., 5% carbon dioxide and 95% humidity in cell culture media based on F-12 glutamax media (Gibco, #31765) supplemented with 1% (vol/vol) penicilline/streptomycine (PAN, #P06-07100), 10% (vol/vol) fetal calf serum (FCS, PAA, #A15-151) and hygromycin B (Invitrogen, #10687-010) 300 mg/l (final concentrations).
Prior to the FLIPR experiment, cells were loaded with fluo-4 acetoxymethyl ester (fluo-4 AM, Invitrogen, #F14202) for 60 min in an incubator at 37° C., 5% carbon dioxide and 95% humidity in dye-loading buffer consisting of Hanks' Balanced Salt Solution (HBSS, Invitrogen, #14065049) supplemented with fluo-4 AM at 2 μM (all data given for final concentration), Pluronic® F-127 0.05% (vol/vol) (Invitrogen, #P-3000 MP), HEPES 20 mM (Gibco, #15630), probenecid 2.5 mM (Sigma, #P-8761) and bovine serum albumin 0.05% (BSA, Sigma, #A-6003), adjusted to pH 7.5 with sodium hydroxide. During cell loading, fluo-4 AM is cleaved by intracellular esterase resulting in trapping of the dye fluo-4 within the cells. Loading was terminated by washing of the cells in a cell washer (Tecan Power washer) three times with the buffer specified afore but without fluo-4 AM and BSA. This latter buffer was also used as the buffer in the subsequent cell fluorescence measurements.
The dye-loaded and washed cells were pre-incubated for approximately 5 min with various concentrations of the test compound added as a solution in DMSO (0.3% vol/vol maximum final concentration of DMSO), or with DMSO in the respective concentration only (positive control). Subsequent addition of LPA (18:1, 1-oleoyl-sn-glycerol 3-phosphate; 100 nM final concentration) leads to liberation of intracellular calcium from internal stores resulting in a large transient increase of the fluo-4 fluorescence signal which was monitored over approximately 3 min. The percent inhibition caused by the test compound was determined from the maximum fluorescence response after LPA addition to cells pre-incubated with the compound as compared to the maximum fluorescence response after LPA addition to cells pre-incubated with DMSO only. All fluorescence values were corrected for the baseline fluorescence values obtained with cells which were pre-incubated with DMSO only and were not treated with LPA (baseline control). All measurements were performed in triplicate. From the percent inhibitions the inhibitory concentration IC50 was determined.

Structures are written as SMILES. pIC50: −log10 of the molar value.

human Edg-2 receptor (LPA1 receptor), sequence (Q92633 whole entry): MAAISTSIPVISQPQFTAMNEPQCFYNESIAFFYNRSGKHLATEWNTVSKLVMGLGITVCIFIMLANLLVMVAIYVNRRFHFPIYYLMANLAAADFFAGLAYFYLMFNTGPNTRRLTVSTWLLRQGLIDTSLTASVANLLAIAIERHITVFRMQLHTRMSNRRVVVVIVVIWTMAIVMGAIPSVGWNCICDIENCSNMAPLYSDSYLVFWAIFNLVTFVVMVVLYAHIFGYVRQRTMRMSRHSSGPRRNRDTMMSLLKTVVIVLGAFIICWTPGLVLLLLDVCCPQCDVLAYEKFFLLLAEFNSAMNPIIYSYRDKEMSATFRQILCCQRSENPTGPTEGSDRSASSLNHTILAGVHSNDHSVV

As for `CCc1ccc(COc2cc(C(=O)NC3(C(=O)O)Cc4ccccc4C3)ccc2OC)cc1` [Example 41], the pIC50 was 4.52 to 6.00.

As for `COc1ccc(C(=O)NC2(C(=O)O)Cc3ccccc3C2)cc1COCc1cccc(C)c1` [Example 279, 2-[4-Methoxy-3-(3-methyl-benzyloxymethyl)-benzoylamino]-indane-2-carboxylic acid], the pIC50 is 6.00 to 7.00.

In the case of `N#Cc1ccc(C(=O)NC2(C(=O)O)Cc3ccccc3C2)cc1N1CCC(c2ccccc2)C1` (centres unmarked) [Example 174, 2-[4-Cyano-3-[3-phenyl-pyrrolidin-1-yl)-benzoylamino]-indane-2-carboxylic acid], the pIC50 was 4.52 to 6.00.

As for `Cc1cccc(CCOc2cc(C(=O)NC3(C(=O)O)Cc4ccccc4C3)ccc2N)c1` [Example 163, 2-[4-Amino-3-(2-m-tolyl-ethoxy)-benzoylamino]-indane-2-carboxylic acid], the pIC50 was 6.00 to 7.00.

With `COc1ccc(C(=O)NC2(C(=O)O)Cc3ccccc3C2)cc1OCCCC(C)C` [Example 43], the pIC50 was 4.52 to 6.00.

Take `O=C(NC1(C(=O)O)Cc2ccccc2C1)c1ccc(C(F)(F)F)c(OCCc2cc(F)ccc2F)c1` [Example 188]: the pIC50 was > 7.00.

Regarding `COc1ccc(C(=O)NC2(C(=O)O)Cc3ccccc3C2)cc1SCc1ccccc1` [Example 182, 2-(3-Benzylsulfanyl-4-methoxy-benzoylamino)-indane-2-carboxylic acid], the pIC50 is 4.52 to 6.00.

On to `COc1ccc(C(=O)NC2(C(=O)O)Cc3ccccc3C2)cc1OCCc1cc(OC(F)(F)F)ccc1F` [Example 355, 2-{3-[2-(2-fluoro-5-trifluoromethoxy-phenyl)-ethoxy]-4-methoxy-benzoylamino}-indane-2-carboxylic acid], for which the pIC50 was > 7.00.

With `COc1ccc(C(=O)NC2(C(=O)O)Cc3ccccc3C2)cc1OCc1csc2ccccc12` [Example 72], the pIC50 is 4.52 to 6.00.

Turning to `Cc1cccc(CCOc2cc(C(=O)NC3(C(=O)O)Cc4ccccc4C3)ccc2O)c1` [Example 254, 2-[4-Hydroxy-3-(2-m-tolyl-ethoxy)-benzoylamino]-indane-2-carboxylic acid], the pIC50 is 4.52 to 6.00.

Turning to `COc1ncc(C(=O)NC2(C(=O)O)Cc3ccccc3C2)cc1-c1cccc(Cl)c1` [Example 223], the pIC50 is > 7.00.

In the case of `COc1ccc(C(=O)NC2(C(=O)O)Cc3ccccc3C2)cc1-c1cc(Cl)ccc1C(F)(F)F` [Example 351], the pIC50 was > 7.00.

For `COc1ccc(C(=O)NC2(C(=O)O)Cc3ccccc3C2)cc1OCCc1ccccn1` [Example 148], the pIC50 was 4.52 to 6.00.

In the case of `COc1ccc(C(=O)NC2(C(=O)O)Cc3ccccc3C2)cc1OCCc1cccc(C)c1` [Example 14, 2-[4-Methoxy-3-(2-m-tolyl-ethoxy)-benzoylamino]-indane-2-carboxylic acid], the pIC50 is > 7.00.

Turning to `COc1ccc(C(=O)NC2(C(=O)O)Cc3ccccc3C2)cc1-c1csc2ccccc12` [Example 295], the pIC50 was > 7.00.

Take `COc1ccc(C(=O)NC2(C(=O)O)Cc3ccccc3C2)cc1-c1cc(F)cc(OCC(C)C)c1` [Example 344]: the pIC50 was 6.00 to 7.00.

As to `COc1ccc(C(=O)NC2(C(=O)O)Cc3ccccc3C2)cc1-c1ccc2c(ccn2C)c1` [Example 330], the pIC50 is 4.52 to 6.00.

Take `COc1ccc(C(=O)NC2(C(=O)O)Cc3ccccc3C2)cc1-c1cncc(C#N)c1` [Example 284]: the pIC50 was > 7.00.

As for `O=C(NC1(C(=O)O)Cc2ccccc2C1)c1ccc(C(F)(F)F)c(OCCc2cccc(Cl)c2)c1` [Example 186, 2-{3-[2-(3-chloro-phenyl)-ethoxy]-4-trifluoromethyl-benzoylamino}-indane-2-carboxylic acid], the pIC50 was > 7.00.

For `COc1ncc(C(=O)NC2(C(=O)O)Cc3ccccc3C2)cc1-c1cccc(Cl)c1Cl` [Example 228], the pIC50 is > 7.00.

Consider `Cc1ccc(F)c(CCOc2cc(C(=O)NC3(C(=O)O)Cc4ccccc4C3)ccc2C(F)(F)F)c1` [Example 192], for which the pIC50 was > 7.00.

As to `COc1c(F)cc(C(=O)NC2(C(=O)O)Cc3ccccc3C2)cc1-c1cccc(C(C)C)c1` [Example 360, 2-[(5-fluoro-3′-isopropyl-6-methoxy-biphenyl-3-carbonyl)-amino]-indane-2-carboxylic acid], the pIC50 is > 7.00.

Consider `Cc1cccc(CCOc2cc(C(=O)NC3(C(=O)O)Cc4ccccc4C3)ccc2OCCOC(C)(C)C)c1` [Example 259], for which the pIC50 was > 7.00.

Turning to `COc1ccc(C(=O)NC2(C(=O)O)Cc3ccccc3C2)cc1OCc1ccc(N2CCCC2)nc1` [Example 76], the pIC50 was 4.52 to 6.00.

As to `COc1ccc(C(=O)NC2(C(=O)O)Cc3ccccc3C2)cc1-c1ccsc1Cl` [Example 329], the pIC50 was 4.52 to 6.00.

In the case of `COc1ccc(C(=O)NC2(C(=O)O)Cc3ccccc3C2)cc1OCCc1cccc(C(F)(F)F)c1F` [Example 155], the pIC50 is 4.52 to 6.00.

With `COc1ccc(C(=O)NC2(C(=O)O)Cc3ccccc3C2)cc1OCC(C)(C)C` [Example 37], the pIC50 was 4.52 to 6.00.

For the molecule `CCSc1cccc(-c2cc(C(=O)NC3(C(=O)O)Cc4ccccc4C3)ccc2OC)c1` [Example 308], the pIC50 was > 7.00.

In the case of `COc1ccc(C(=O)NC2(C(=O)O)Cc3ccccc3C2)cc1OCCc1cccc([S+](C)[O-])c1` (centres unmarked) [Example 17, 2-{3-[2-(3-Methanesulfinyl-phenyl)-ethoxy]-4-methoxy-benzoylamino}-indane-2-carboxylic acid], the pIC50 was 4.52 to 6.00.

For the molecule `COc1c(OCCc2cccc(C)c2)cc(C(=O)NC2(C(=O)O)Cc3ccccc3C2)cc1[N+](=O)[O-]` [Example 107, 2-[4-Methoxy-3-nitro-5-(2-m-tolyl-ethoxy)-benzoylamino]-indane-2-carboxylic acid], the pIC50 is 4.52 to 6.00.

`COc1ccc(C(=O)NC2(C(=O)O)Cc3ccccc3C2)cc1OC/C=C/c1ccccc1` [Example 45]: the pIC50 was 4.52 to 6.00.

On to `COc1ccc(C(=O)NC2(C(=O)O)Cc3cc(Cl)sc3C2)cc1OCCc1cccc(C)c1` (centres unmarked) [Example 100, 2-Chloro-5-[4-methoxy-3-(2-m-tolyl-ethoxy)-benzoylamino]-5,6-dihydro-4H-cyclopenta[b]thiophene-5-carboxylic acid], for which the pIC50 was > 7.00.

For `COc1c(F)cc(C(=O)NC2(C(=O)O)Cc3ccccc3C2)cc1-c1cccc(NS(=O)(=O)N(C)C)c1` [Example 361], the pIC50 is > 7.00.

On to `COc1ccc(C(=O)NC2(C(=O)O)Cc3ccccc3C2)cc1-c1cccc(NS(=O)(=O)N(C)C)c1` [Example 203], for which the pIC50 was > 7.00.

`Cc1nccnc1CCOc1cc(C(=O)NC2(C(=O)O)Cc3ccccc3C2)ccc1C(F)(F)F` [Example 190]: the pIC50 was 4.52 to 6.00.

Regarding `COc1ccc(C(=O)NC2(C(=O)O)Cc3ccccc3C2)cc1OCCc1ccccc1C(F)(F)F` [Example 47], the pIC50 was 4.52 to 6.00.

On to `COc1ccc(C(=O)NC2(C(=O)O)Cc3ccccc3C2)cc1OCCc1ccccc1` [Example 130], for which the pIC50 is > 7.00.

On to `COc1ccc(C(=O)NC2(C(=O)O)Cc3ccccc3C2)cc1-c1cc(C)c(C)cc1C` [Example 317], for which the pIC50 is 6.00 to 7.00.

For the molecule `CCc1cccc(CCOc2cc(C(=O)NC3(C(=O)O)Cc4ccccc4C3)ccc2OC)c1` [Example 23], the pIC50 is > 7.00.

On to `COc1ccc(C(=O)NC2(C(=O)O)Cc3ccccc3C2)cc1OCCc1cccc(Br)c1` [Example 143], for which the pIC50 is > 7.00.

On to `COc1ccc(C(=O)NC2(C(=O)O)Cc3ccccc3C2)cc1-c1cc(C)cc(C(C)(C)C)c1` [Example 313], for which the pIC50 is > 7.00.
